Test results: patent US20240287138A1, “CYCLIC PEPTIDES FOR INHIBITING TNF RECEPTOR 1 ACTIVITY” (Merck Sharp & Dohme LLC, priority 2023, published 2024)
Where two headings read alike, the source gives them in different places. Numbered stars: 1 amine (or outer) side, 2 acyl side, 3 side chain; on linkers, the order of the positions; unused ones are H or OH. Bridge positions count the residues as written; N and C are the ends. Square brackets hold non-standard residues; d marks the D form. Peptide text beside a SMILES is read from it. * marks the point of attachment. Trp(βS-Me,7-OMe) = COc1cccc2c([C@H](C)[C@H](N)C(=O)O)c[nH]c12; X49 = C[N+](C)(C)CC(=O)N[C@H]1C[C@H](C(=O)[*:2])N([*:1])C1; Phe(4-SO2NH2) = N[C@@H](Cc1ccc(S(N)(=O)=O)cc1)C(=O)O; Trp(7-CN) = N#Cc1cccc2c(C[C@H](N)C(=O)O)c[nH]c12; Trp(7-Cl) = N[C@@H](Cc1c[nH]c2c(Cl)cccc12)C(=O)O; X55 = O=C([C@H]1C[C@H](c2nn[nH]n2)CN1[*:1])[*:2]; X27 = O=C(O)c1ccc(C[C@H](N[*:1])C(=O)[*:2])cc1F; Phe(4-CONH2) = NC(=O)c1ccc(C[C@H](N)C(=O)O)cc1; Phe(4-COOH) = N[C@@H](Cc1ccc(C(=O)O)cc1)C(=O)O; X59 = O=C([C@H](Cc1[nH]nc2ccccc12)N[*:1])[*:2]; Trp(7-aza) = N[C@@H](Cc1c[nH]c2ncccc12)C(=O)O; Phe(4-CH2NH2) = NCc1ccc(C[C@H](N)C(=O)O)cc1; Pip(5R-OH) = O=C(O)[C@@H]1CC[C@@H](O)CN1; X1 = O=C([C@@H]1CC[C@H](N[*:1])C1)[*:2]; Pip(4-aza) = O=C(O)[C@@H]1CNCCN1; 4Pal = N[C@@H](Cc1ccncc1)C(=O)O; NMeE = CN[C@@H](CCC(=O)O)C(=O)O; dHyp = O=C(O)[C@H]1C[C@H](O)CN1; X39 = C[C@H](C(=O)[*:1])[*:2]; hSer = N[C@@H](CCO)C(=O)O; αMeS = C[C@](N)(CO)C(=O)O; Carboxymethyl = O=C(O)C*; Nle = CCCC[C@H](N)C(=O)O; Sar = CNCC(=O)O

Key:
[1] = target: T1, TNFα-induced NF-κB signal transduction pathway (TNFR1 signaling) in THP-1 cells (Homo sapiens, UniProt P19438); experiment: THP-1 Lucia NF-κB reporter cell assay, inhibition of TNFα-induced NF-κB signaling; type: cell-based; settings: THP-1 NF-κB Lucia reporter cells, 10 ng/mL TNFα, 16-18 h, secreted luciferase; read-out: THP-1 IC50
T1 sequence (P19438 30-455): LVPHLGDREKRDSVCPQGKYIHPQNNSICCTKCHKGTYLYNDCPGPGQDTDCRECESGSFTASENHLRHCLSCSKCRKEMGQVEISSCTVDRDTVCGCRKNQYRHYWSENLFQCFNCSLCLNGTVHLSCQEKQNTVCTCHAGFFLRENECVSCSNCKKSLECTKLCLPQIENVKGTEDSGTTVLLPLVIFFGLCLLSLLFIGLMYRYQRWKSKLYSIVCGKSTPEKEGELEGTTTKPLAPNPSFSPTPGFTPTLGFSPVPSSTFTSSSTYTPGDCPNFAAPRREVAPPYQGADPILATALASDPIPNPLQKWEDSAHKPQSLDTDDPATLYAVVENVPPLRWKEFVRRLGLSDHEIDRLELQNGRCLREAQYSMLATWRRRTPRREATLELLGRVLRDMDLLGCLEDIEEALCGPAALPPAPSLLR
Outline: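 IC50 from a 4-parameter logistic fit of secreted luciferase luminescence (QUANTI-Luc), normalised to min/max controls. Reporter THP-1 cells were exposed to peptides for 1 h at 37 °C before 10 ng/mL TNFα (final) was added overnight (16–18 h).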

[2] = target: T2, human soluble TNFR1 (sTNFR1) (Homo sapiens, UniProt P19438); experiment: Human sTNFR1-peptide displacement assay (LanthaScreen Eu TR-FRET binding assay)
T2 construct: made in house; host or cells: Sf21 (baculovirus)
T2 sequence (P19438 with tags, fused parts or gaps): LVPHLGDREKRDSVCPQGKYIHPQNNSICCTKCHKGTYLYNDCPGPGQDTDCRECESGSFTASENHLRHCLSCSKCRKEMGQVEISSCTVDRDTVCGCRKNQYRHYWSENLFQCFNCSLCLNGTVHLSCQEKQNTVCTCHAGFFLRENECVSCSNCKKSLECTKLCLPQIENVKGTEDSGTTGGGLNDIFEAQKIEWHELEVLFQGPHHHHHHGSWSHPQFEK
Outline: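 Readout is the 665/615 nm TR-FRET ratio (Eu anti-His donor, streptavidin-Alexa647 acceptor), normalized to DMSO and saturating displacer, fit by Morrison-based five-parameter logistic for Kd^app. His-tagged sTNFR1 (1-211) prebound to 100 nM biotinylated peptide SEQ ID NO.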

CCCC[C@@H]1NC(=O)[C@@H]2CC[C@@H](C2)NC(=O)[C@H]([C@@H](C)c2c[nH]c3c(OC)cccc23)NC(=O)CN(C)C(=O)[C@H](Cc2ccc(C(=O)O)cc2)NC(=O)[C@H](Cc2ccc(S(N)(=O)=O)cc2)NC(=O)[C@](C)(CO)NC(=O)[C@H](Cc2c[nH]c3c(C#N)cccc23)NC(=O)[C@H](Cc2ccc(C(=O)O)cc2)NC(=O)[C@H](CC(N)=O)NC(=O)[C@H]2C[C@H](OCC(=O)O)CN2C(=O)[C@H](Cc2[nH]nc3ccccc23)NC(=O)[C@@H]2CC[C@@H](O)CN2C(=O)[C@H](Cc2ccncc2)NC1=O [SEQ ID NO. 204] (cyclo([4Pal][Pip(5R-OH)][X59][dHyp](Carboxymethyl)N[Phe(4-COOH)][Trp(7-CN)][αMeS][Phe(4-SO2NH2)][Phe(4-COOH)][Sar][Trp(βS-Me,7-OMe)][X1][Nle]))
IC50 [1]: 0.8 nM
Kd [2]: 0.11 nM

CCCC[C@@H]1NC(=O)[C@@H](C)SC[C@@H](C(N)=O)NC(=O)[C@H]([C@@H](C)c2c[nH]c3c(OC)cccc23)NC(=O)CN(C)C(=O)[C@H](Cc2ccc(O)cc2)NC(=O)[C@H](Cc2ccc(C(N)=O)cc2)NC(=O)[C@](C)(CO)NC(=O)[C@H](Cc2c[nH]c3c(Cl)cccc23)NC(=O)[C@H](Cc2ccncc2)NC(=O)[C@H](CC(N)=O)NC(=O)[C@H](CCC(=O)O)N(C)C(=O)[C@H](Cc2c[nH]c3ncccc23)NC(=O)[C@H](CO)NC(=O)[C@H](Cc2ccc(CN)cc2)NC1=O [SEQ ID NO. 250] ([Nle][Phe(4-CH2NH2)]S[Trp(7-aza)][NMeE]N[4Pal][Trp(7-Cl)][αMeS][Phe(4-CONH2)]Y[Sar][Trp(βS-Me,7-OMe)]C-NH2; linker N-14 via X39)
IC50 [1]: 2.4 nM
Kd ([2]; displacement of biotinylated peptide SEQ ID NO. 1 from sTNFR1, 20 point titration, 5-parameter fit based on Morrison equation (tight binding), read-out: TR-FRET Kd^app): 0.17 nM
IC50 ([2]; displacement of biotinylated peptide SEQ ID NO. 1 from sTNFR1, weaker binders, 10 pts titration, 4-parameter logistic model, read-out: TR-FRET, IC50): 0.27 nM

CCCC[C@@H]1NC(=O)[C@@H]2CC[C@@H](C2)NC(=O)[C@H]([C@@H](C)c2c[nH]c3c(OC)cccc23)NC(=O)CN(C)C(=O)[C@H](Cc2ccc(C(=O)O)cc2)NC(=O)[C@H](Cc2ccc(C(N)=O)cc2)NC(=O)[C@](C)(CO)NC(=O)[C@H](Cc2c[nH]c3c(Cl)cccc23)NC(=O)[C@H](Cc2ccc(C(=O)O)cc2)NC(=O)[C@H](CC(N)=O)NC(=O)[C@H]2C[C@H](c3nn[nH]n3)CN2C(=O)[C@H](Cc2c[nH]c3ccccc23)NC(=O)[C@@H]2CC[C@@H](O)CN2C(=O)[C@H](Cc2ccncc2)NC1=O [SEQ ID NO. 11] (cyclo([4Pal][Pip(5R-OH)]W[X55]N[Phe(4-COOH)][Trp(7-Cl)][αMeS][Phe(4-CONH2)][Phe(4-COOH)][Sar][Trp(βS-Me,7-OMe)][X1][Nle]))
IC50 [1]: 0.7 nM
Kd [2]: 0.07 nM

CCCC[C@@H]1NC(=O)[C@@H]2CC[C@@H](C2)NC(=O)[C@H]([C@@H](C)c2c[nH]c3c(OC)cccc23)NC(=O)CN(C)C(=O)[C@H](Cc2ccc(C(=O)O)cc2)NC(=O)[C@H](Cc2ccc(C(N)=O)cc2)NC(=O)[C@](C)(CO)NC(=O)[C@H](Cc2c[nH]c3c(C#N)cccc23)NC(=O)[C@H](Cc2ccc(C(=O)O)c(F)c2)NC(=O)[C@H](CC(N)=O)NC(=O)[C@H]2C[C@H](NC(=O)C[N+](C)(C)C)CN2C(=O)[C@H](Cc2c[nH]c3ncccc23)NC(=O)[C@@H]2CC[C@@H](O)CN2C(=O)[C@H](Cc2ccncc2)NC1=O [SEQ ID NO. 116] (cyclo([4Pal][Pip(5R-OH)][Trp(7-aza)][X49]N[X27][Trp(7-CN)][αMeS][Phe(4-CONH2)][Phe(4-COOH)][Sar][Trp(βS-Me,7-OMe)][X1][Nle]))
IC50 [1]: 0.4 nM
Kd [2]: 0.08 nM

CCCC[C@@H]1NC(=O)[C@@H]2CC[C@@H](C2)NC(=O)[C@H]([C@@H](C)c2c[nH]c3c(OC)cccc23)NC(=O)CN(C)C(=O)[C@H](Cc2ccc(O)cc2)NC(=O)[C@H](Cc2ccc(C(=O)O)cc2)NC(=O)[C@](C)(CO)NC(=O)[C@H](Cc2c[nH]c3c(Cl)cccc23)NC(=O)[C@H](Cc2ccncc2)NC(=O)[C@H](CCOC)NC(=O)[C@H](CCC(=O)O)N(C)C(=O)[C@H](Cc2c[nH]c3ccccc23)NC(=O)[C@@H]2CNCCN2C(=O)[C@H](Cc2ccncc2)NC1=O [SEQ ID NO. 181] (cyclo([4Pal][Trp(7-Cl)][αMeS][Phe(4-COOH)]Y[Sar][Trp(βS-Me,7-OMe)][X1][Nle][4Pal][Pip(4-aza)]W[NMeE][hSer](Me)))
IC50 [1]: 1.2 nM
Kd [2]: 0.34 nM
